pIC50: −log10 of the molar value. Activity calls are given as the source filed them. The rule behind the calls is not given here.
How the values were obtained:
U-87 MG [1] = assay: Anti-proliferative activity against human U-87 MG cells assessed as cell viability incubated for 2 hrs by CCK8 assay; assay type: functional, cell-based, U-87MG ATCC
[2] = Bioavailability in C57BL6/J mouse at 5 mg/kg, […] measured upto 24 hrs by LC-MS/MS analysis; assay type: ADME, organism-based; details: in vivo
GL261 [3] = assay: Induction of apoptosis in mouse GL261 cells assessed as increase in cleaved caspase 3 level measured at 0.5 to 2 uM after 24 hrs by Western blot analysis; assay type: functional, cell-based; details: dose 0.5-2 µM
GL261 [4] = assay: Induction of apoptosis in mouse GL261 cells assessed as increase in annexin-V+/PI- cells incubated for 24 to 72 hrs by flow cytometry; assay type: functional, cell-based; details: dose 0.5-2 µM, time 24-72 hrs
Mus musculus = assay: Anti glioblastoma activity against mouse GL261-mNeonGreenLuc cells stereotaxically injected in corpus striatum of orthotopic glioblastoma mouse model assessed as increase in survival rate at 5 mg/kg, ip once daily measured on day 21; assay type: functional, organism-based
[5] = target: T1, ALK tyrosine kinase receptor (Homo sapiens, UniProt Q9UM73); details: U-87 MG, dose 0.5-2 µM, time 24.0 hrs
Target sequence in this assay (Q9UM73 19-1620 limits assumed): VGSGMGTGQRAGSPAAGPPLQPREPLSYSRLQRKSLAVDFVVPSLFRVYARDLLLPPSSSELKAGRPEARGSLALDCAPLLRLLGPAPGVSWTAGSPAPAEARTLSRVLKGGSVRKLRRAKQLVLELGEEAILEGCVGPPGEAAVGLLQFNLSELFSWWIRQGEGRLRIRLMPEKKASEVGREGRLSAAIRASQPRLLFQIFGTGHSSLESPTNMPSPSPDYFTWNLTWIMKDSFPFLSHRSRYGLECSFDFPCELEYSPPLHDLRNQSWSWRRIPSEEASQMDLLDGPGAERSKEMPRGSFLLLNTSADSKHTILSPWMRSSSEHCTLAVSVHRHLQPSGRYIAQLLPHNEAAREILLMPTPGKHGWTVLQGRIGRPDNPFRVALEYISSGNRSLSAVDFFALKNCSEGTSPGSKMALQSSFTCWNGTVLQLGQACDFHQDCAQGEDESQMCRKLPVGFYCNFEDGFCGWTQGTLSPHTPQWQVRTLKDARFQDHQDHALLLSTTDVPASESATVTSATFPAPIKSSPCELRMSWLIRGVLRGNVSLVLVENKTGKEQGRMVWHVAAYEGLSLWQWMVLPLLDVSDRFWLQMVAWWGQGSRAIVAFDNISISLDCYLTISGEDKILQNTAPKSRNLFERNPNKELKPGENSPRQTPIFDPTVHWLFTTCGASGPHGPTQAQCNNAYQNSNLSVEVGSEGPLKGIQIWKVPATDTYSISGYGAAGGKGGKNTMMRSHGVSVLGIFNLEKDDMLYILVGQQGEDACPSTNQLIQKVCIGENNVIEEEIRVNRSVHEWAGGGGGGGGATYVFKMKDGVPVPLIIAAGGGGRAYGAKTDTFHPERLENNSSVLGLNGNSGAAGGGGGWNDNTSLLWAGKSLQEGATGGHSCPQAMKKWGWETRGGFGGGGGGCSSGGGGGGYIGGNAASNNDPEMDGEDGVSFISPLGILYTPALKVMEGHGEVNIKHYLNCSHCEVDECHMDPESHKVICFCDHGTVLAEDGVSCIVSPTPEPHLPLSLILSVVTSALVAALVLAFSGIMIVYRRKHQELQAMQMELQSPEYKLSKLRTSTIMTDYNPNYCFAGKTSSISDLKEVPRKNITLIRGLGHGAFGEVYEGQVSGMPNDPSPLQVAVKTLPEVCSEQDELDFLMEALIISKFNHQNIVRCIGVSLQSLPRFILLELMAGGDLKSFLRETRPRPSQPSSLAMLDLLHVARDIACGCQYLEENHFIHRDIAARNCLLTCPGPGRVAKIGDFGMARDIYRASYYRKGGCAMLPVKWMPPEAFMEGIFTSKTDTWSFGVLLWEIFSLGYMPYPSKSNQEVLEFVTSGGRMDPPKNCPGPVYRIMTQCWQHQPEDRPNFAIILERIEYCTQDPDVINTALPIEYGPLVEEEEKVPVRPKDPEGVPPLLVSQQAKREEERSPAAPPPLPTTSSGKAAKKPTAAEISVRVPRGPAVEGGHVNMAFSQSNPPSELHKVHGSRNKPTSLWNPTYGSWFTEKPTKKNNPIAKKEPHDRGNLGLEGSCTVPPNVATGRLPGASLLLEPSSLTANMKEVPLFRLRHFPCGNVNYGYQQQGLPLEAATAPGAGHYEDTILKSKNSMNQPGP

GL261 [6] = assay: Induction of mitochondrial membrane potential loss in mouse GL261 cells at 0.5 to 2 uM incubated for 24 hrs by JC-1 staining based flow cytometry assay; assay type: functional, cell-based; details: dose 0.5-2 µM
HeLa = assay: Anti-proliferative activity against human HeLa cells assessed as inhibition rate at 160 uM incubated for 24 to 72 hrs by CCK8 assay relative to control; assay type: functional; details: time 24-72 hrs
U-87 MG [7] = assay: Anti-proliferative activity against human U-87 MG cells assessed as decrease in cell viability at 0.5 to 10 uM by CCK8 assay; assay type: functional, cell-based; details: U-87MG ATCC, dose 0.5-10 µM, time 24-72 hrs, TDE = time-dependent effect
[8] = Half life in C57BL6/J mouse at 5 mg/kg, ip measured upto 24 hrs by LC-MS/MS analysis; assay type: ADME, organism-based; details: in vivo
GL261 [9] = assay: Induction of apoptosis in mouse GL261 cells assessed as necrotic cells measured at 0.5 to 2 uM after 72 hrs by flow cytometry; assay type: functional, cell-based; details: dose 0.5-2 µM
[10] = Volume of distribution at steady state in C57BL6/J mouse at 5 mg/kg, iv measured upto 24 hrs by LC-MS/MS analysis; assay type: ADME, organism-based; details: in vivo, read-out: Vdss
[11] = MRT (0 to 8hrs) in C57BL6/J mouse at 5 mg/kg, iv measured upto 24 hrs by LC-MS/MS analysis; assay type: ADME, organism-based; details: in vivo
[12] = Cmax in C57BL6/J mouse at 5 mg/kg, iv measured upto 24 hrs by LC-MS/MS analysis; assay type: ADME, organism-based; set-up: dose 5 mg/kg, time < 24 hrs, route iv; details: in vivo
[13] = target: T1, ALK tyrosine kinase receptor; assay: Inhibition of human ALK using GF-IRtide as substrate by Kinase-Glo Plus luminescence kinase assay
Target sequence in this assay (Q9UM73 whole entry): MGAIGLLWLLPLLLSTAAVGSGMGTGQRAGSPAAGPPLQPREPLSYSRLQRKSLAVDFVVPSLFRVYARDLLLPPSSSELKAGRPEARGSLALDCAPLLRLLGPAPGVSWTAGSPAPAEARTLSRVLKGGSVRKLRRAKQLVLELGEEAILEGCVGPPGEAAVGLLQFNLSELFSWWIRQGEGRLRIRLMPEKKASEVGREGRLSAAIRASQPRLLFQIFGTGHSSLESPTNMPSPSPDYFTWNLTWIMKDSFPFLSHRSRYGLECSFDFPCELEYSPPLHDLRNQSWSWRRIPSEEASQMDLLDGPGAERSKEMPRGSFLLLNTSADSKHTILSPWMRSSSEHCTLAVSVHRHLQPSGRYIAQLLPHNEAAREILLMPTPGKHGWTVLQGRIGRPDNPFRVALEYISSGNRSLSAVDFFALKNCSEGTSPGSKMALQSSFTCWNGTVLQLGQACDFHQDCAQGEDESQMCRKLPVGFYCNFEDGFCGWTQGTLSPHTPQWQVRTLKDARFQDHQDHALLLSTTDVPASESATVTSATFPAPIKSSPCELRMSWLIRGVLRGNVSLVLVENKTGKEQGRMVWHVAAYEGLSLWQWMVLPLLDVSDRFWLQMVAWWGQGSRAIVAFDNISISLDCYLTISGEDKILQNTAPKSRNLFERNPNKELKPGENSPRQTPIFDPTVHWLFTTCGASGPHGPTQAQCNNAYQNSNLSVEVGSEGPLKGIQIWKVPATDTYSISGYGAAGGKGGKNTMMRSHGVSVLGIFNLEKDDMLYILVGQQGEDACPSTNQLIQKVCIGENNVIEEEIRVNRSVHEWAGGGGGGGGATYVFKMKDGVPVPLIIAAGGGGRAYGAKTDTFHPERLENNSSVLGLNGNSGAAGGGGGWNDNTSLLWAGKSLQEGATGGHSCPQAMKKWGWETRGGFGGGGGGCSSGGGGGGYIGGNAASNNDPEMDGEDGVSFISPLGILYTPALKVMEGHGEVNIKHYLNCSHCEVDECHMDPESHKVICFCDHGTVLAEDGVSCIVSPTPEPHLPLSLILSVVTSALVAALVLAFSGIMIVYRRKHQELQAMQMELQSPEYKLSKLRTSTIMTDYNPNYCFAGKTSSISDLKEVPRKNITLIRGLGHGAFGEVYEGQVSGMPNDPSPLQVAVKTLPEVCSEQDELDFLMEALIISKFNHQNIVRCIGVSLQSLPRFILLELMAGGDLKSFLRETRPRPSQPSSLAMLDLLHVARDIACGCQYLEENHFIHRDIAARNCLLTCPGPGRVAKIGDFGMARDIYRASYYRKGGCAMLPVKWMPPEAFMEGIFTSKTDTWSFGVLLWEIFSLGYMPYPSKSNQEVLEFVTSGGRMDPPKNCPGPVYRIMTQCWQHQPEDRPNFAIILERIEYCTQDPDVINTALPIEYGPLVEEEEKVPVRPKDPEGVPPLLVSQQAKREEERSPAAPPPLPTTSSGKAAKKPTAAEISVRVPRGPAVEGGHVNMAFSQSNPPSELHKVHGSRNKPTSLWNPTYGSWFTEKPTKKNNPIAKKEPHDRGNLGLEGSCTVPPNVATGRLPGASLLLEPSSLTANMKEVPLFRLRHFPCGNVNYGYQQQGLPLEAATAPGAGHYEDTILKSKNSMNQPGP

[14] = MRT (0 to infinity) in C57BL6/J mouse at 5 mg/kg, ip measured upto 24 hrs by LC-MS/MS analysis; assay type: ADME, organism-based; details: in vivo
GL261 [15] = assay: Anti-glioblastoma activity against mouse GL261-mNeonGreenLuc cells stereotaxically injected in corpus striatum of orthotopic glioblastoma mouse model assessed as decrease in Ki67 expression in GFP-labeled glioblastoma tissue at 5 mg/kg, ip once daily measured on day 21 by confocal microscopy; assay type: functional, organism-based
GL261 [16] = assay: Induction of autophagy in mouse GL261 cells assessed as decrease in mTOR phosphorylation at 0.5 to 2 uM incubated for 24 hrs by Western blot analysis; assay type: functional, cell-based; details: dose 0.5-2 µM
GL261 [17] = assay: In vivo induction of apoptosis in mouse GL261 cells transfected with mRFP-GFPLC3 adenovirus allografted in C57BL/6J mouse model assessed as increase in cleaved caspase 3 level in tumor tissue at 2.5 to 5 mg/kg, ip by immunofluorescence assay; assay type: functional, organism-based; details: dose 2.5-5 mg/kg
[18] = AUC (0 to infinity) in C57BL6/J mouse at 5 mg/kg, ip measured upto 24 hrs by LC-MS/MS analysis; assay type: ADME, organism-based; set-up: time < 24 hrs, dose 5 mg/kg, route ip; details: in vivo
[19] = Cmax in C57BL6/J mouse at 5 mg/kg, ip measured upto 24 hrs by LC-MS/MS analysis; assay type: ADME, organism-based; set-up: time < 24 hrs, dose 5 mg/kg, route ip; details: in vivo
[20] = Tmax in C57BL6/J mouse at 5 mg/kg, iv measured upto 24 hrs by LC-MS/MS analysis; assay type: ADME, organism-based; details: in vivo
[21] = Drug uptake in C57BL6/J mouse brain at 20 mg/kg, ip measured after 2 hrs by LC-MS/MS analysis; assay type: ADME, organism-based; details: in vivo
GL261 [22] = assay: Induction of apoptosis in mouse GL261 cells assessed as increase in annexin-V+/PI- cells at 0.5 to 2 uM by flow cytometry; assay type: functional, cell-based; details: dose 0.5-2 µM, time 24-72 hrs, TDE = time-dependent effect
GL261 [23] = assay: Induction of cell cycle arrest in mouse GL261 cells assessed as accumulation at S phase at 1 uM incubated for 72 hrs by flow cytometry (reference value: 13.9%); assay type: functional, cell-based
[24] = Tmax in C57BL6/J mouse at 5 mg/kg, ip measured upto 24 hrs by LC-MS/MS analysis; assay type: ADME, organism-based; details: in vivo
U-87 MG [25] = assay: Anti-proliferative activity against human U-87 MG cells assessed as decrease in cell viability incubated for 24 to 72 hrs by CCK8 assay; assay type: functional, cell-based; details: U-87MG ATCC, dose 0.5-10 µM, time 24-72 hrs
[26] = AUC (0 to infinity) in C57BL6/J mouse at 5 mg/kg, iv measured upto 24 hrs by LC-MS/MS analysis; assay type: ADME, organism-based; set-up: dose 5 mg/kg, time < 24 hrs, route iv; details: in vivo
[27] = AUC (0 to 8hrs) in C57BL6/J mouse at 5 mg/kg, iv measured upto 24 hrs by LC-MS/MS analysis; assay type: ADME, organism-based; set-up: dose 5 mg/kg, time < 24 hrs, route iv; details: in vivo
[28] = AUC (0 to 8hrs) in C57BL6/J mouse at 5 mg/kg, ip measured upto 24 hrs by LC-MS/MS analysis; assay type: ADME, organism-based; set-up: dose 5 mg/kg, time < 24 hrs, route ip; details: in vivo
[29] = target: ALK tyrosine kinase receptor (Mus musculus) (UniProt P97793); assay: Inhibition of ALK phosphorylation in mouse GL261 cells at 0.5 to 2 uM incubated for 24 hrs by Western blot analysis; assay type: cell-based; details: dose 0.5-2 µM
[30] = Apparent volume of distribution in C57BL6/J mouse at 5 mg/kg, iv measured upto 24 hrs by LC-MS/MS analysis; assay type: ADME, organism-based; details: in vivo, read-out: Vz
GL261 [31] = assay: Anti glioblastoma activity against mouse GL261-mNeonGreenLuc cells stereotaxically injected in corpus striatum of orthotopic glioblastoma mouse model assessed as inhibition of tumor growth at 5 mg/kg, ip once daily measured on day 21 by immunofluorescence imaging analysis; assay type: functional, organism-based
GL261 [32] = assay: In vivo induction of apoptosis in mouse GL261 cells transfected with mRFP-GFPLC3 adenovirus allografted in C57BL/6J mouse model assessed as increase in cleaved PARP level in tumor tissue at 2.5 to 5 mg/kg, ip by immunofluorescence assay; assay type: functional, organism-based; details: dose 2.5-5 mg/kg
[33] = target: ALK tyrosine kinase receptor (Mus musculus) (UniProt P97793); assay: Binding affinity to ALK in mouse GL261 cell lysate assessed as increase in thermal stability of the protein measured after 4 hrs by […] based CETSA analysis; assay type: subcellular
[34] = target: T1, ALK tyrosine kinase receptor; details: U-87 MG, dose 0.5-2 µM, time 24.0 hrs; remark: listed apart in the source
Target sequence in this assay (Q9UM73 19-1620 limits assumed): as the sequence (Q9UM73 19-1620 limits assumed) above

[35] = target: T1, ALK tyrosine kinase receptor; details: U-87 MG, dose 0.5-2 µM, time 24.0 hrs; remark: listed apart in the source
Target sequence in this assay (Q9UM73 19-1620 limits assumed): as above

Chain of ALK tyrosine kinase receptor (Mus musculus) (P97793 whole entry): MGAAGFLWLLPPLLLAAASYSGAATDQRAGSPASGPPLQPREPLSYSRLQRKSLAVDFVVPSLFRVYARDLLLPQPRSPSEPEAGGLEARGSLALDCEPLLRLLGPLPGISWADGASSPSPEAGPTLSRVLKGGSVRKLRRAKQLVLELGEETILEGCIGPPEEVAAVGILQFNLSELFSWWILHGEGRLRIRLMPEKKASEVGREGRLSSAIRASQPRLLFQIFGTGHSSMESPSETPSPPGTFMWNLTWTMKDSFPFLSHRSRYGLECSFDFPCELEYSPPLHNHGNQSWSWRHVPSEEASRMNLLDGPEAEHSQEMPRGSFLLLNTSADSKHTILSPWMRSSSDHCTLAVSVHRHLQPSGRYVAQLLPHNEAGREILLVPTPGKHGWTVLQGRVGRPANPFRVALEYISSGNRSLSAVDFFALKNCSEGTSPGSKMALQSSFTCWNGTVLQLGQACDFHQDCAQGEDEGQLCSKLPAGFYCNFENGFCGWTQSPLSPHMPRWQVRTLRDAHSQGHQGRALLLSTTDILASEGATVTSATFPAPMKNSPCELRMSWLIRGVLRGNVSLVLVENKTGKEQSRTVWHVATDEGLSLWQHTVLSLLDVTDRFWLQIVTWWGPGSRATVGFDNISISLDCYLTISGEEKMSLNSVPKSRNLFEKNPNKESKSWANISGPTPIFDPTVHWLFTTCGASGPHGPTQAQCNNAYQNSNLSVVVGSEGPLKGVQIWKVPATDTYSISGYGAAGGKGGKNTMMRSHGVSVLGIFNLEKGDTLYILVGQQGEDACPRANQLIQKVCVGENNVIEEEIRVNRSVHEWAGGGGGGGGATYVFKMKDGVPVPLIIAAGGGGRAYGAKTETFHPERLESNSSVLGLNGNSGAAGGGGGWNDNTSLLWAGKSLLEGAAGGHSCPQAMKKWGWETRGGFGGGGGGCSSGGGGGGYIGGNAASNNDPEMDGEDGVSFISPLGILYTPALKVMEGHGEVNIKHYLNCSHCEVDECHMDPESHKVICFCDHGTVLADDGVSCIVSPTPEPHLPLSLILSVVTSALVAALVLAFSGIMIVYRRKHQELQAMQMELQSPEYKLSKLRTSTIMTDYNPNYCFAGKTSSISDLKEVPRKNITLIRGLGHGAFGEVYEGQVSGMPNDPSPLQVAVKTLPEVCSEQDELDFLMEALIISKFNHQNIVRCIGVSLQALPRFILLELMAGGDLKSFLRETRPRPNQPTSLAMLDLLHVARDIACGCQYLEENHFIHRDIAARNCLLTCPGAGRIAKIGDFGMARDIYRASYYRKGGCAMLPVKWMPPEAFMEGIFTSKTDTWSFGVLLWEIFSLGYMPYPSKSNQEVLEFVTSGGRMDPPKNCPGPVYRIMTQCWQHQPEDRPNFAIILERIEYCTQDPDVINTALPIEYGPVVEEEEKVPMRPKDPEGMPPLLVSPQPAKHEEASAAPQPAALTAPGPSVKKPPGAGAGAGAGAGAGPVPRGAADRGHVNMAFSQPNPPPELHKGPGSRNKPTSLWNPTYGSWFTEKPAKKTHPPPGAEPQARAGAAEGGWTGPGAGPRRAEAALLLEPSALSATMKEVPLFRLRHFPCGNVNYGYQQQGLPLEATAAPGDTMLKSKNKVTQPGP

SMILES: Cc1ccc(S(=O)(=O)n2cc(Cc3cc(C)c(O)c(C)c3)c3ccccc32)cc1
- pIC50 (U-87 MG [1]): 5.14
- bioavailability [2]: 38.4%
- Activity (GL261 [3]): Active
- Activity (GL261 [4]): Dose-Dependent Effect
- Activity (Mus musculus): Active
- inhibition [5]: Active
- Activity (GL261 [6]): Active
- inhibition at 160 µM (HeLa): 50%
- Activity (U-87 MG [7]): Tde
- half-life [8]: 213 min
- Activity (GL261 [9]): Active
- Vd [10]: 4.59 L/kg
- MRT last at 24 h [11]: 37.8 min
- Cmax [12]: 1980 ng/mL
- pIC50 [13]: 5.15
- MRT inf [14]: 4.6 h
- Activity (GL261 [15]): Active
- Activity (GL261 [16]): Active
- Activity (GL261 [17]): Active
- AUC(0-inf) [18]: 420 ng·h/mL
- Cmax [19]: 118 ng/mL
- Tmax [20]: 4.8 min
- Drug uptake [21]: 2.7 µmol/kg
- Activity (GL261 [22]): Tde
- Activity (GL261 [23]): Active
- Tmax [24]: 34.8 min
- Activity (U-87 MG [25]): Dose-Dependent Effect
- AUC(0-inf) [26]: 925 ng·h/mL
- AUC(0-t) at 24 h [27]: 885 ng·h/mL
- AUC(0-t) at 24 h [28]: 340 ng·h/mL
- inhibition [29]: Active
- Vd [30]: 8.89 L/kg
- inhibition (GL261 [31]): Active
- Activity (GL261 [32]): Active
- Activity [33]: Active
- inhibition [34]: Active
- inhibition [35]: Active

— ChEMBL document CHEMBL5370642, “Synthesis and Bioevaluation of 3-(Arylmethylene)indole Derivatives: Discovery of a Novel ALK Modulator with Antiglioblastoma Activities” (J Med Chem, 2023)
